Data as given in the NIST ThermoML archive (doi:10.1021/je300252d).

Test: mn = molality of the nth substance listed, in mol/kg
Settings: 100 kPa, Liquid, Direct current cell with electrodes

[Na+].c1ccc([B-](c2ccccc2)(c2ccccc2)c2ccccc2)cc1 [sodium tetraphenylboron] + CN(C)C=O
Settings	molar conductivity [S·m2/mol]
283.15 K, m1 = 0.0001121	0.004311
283.15 K, m1 = 0.0003006	0.004246
283.15 K, m1 = 0.0005305	0.004194
283.15 K, m1 = 0.0007538	0.0041545
283.15 K, m1 = 0.001184	0.0040963
283.15 K, m1 = 0.001959	0.0040172
283.15 K, m1 = 0.002964	0.0039424
283.15 K, m1 = 0.004014	0.0038787
283.15 K, m1 = 0.005905	0.0037902
283.15 K, m1 = 0.007908	0.0037146
283.15 K, m1 = 0.009953	0.0036529
283.15 K, m1 = 0.01189	0.003601
288.15 K, m1 = 8.405e-05	0.004653
288.15 K, m1 = 0.0003375	0.00456
288.15 K, m1 = 0.0005532	0.0045097
288.15 K, m1 = 0.0008262	0.0044598
288.15 K, m1 = 0.001174	0.0044103
288.15 K, m1 = 0.001935	0.0043259
288.15 K, m1 = 0.003089	0.004235
288.15 K, m1 = 0.003947	0.00418
288.15 K, m1 = 0.005926	0.0040813
288.15 K, m1 = 0.007888	0.004001
288.15 K, m1 = 0.009893	0.0039356
288.15 K, m1 = 0.01186	0.0038782
293.15 K, m1 = 8.854e-05	0.00499
293.15 K, m1 = 0.0003068	0.004902
293.15 K, m1 = 0.0005164	0.0048481
293.15 K, m1 = 0.0007512	0.0047996
293.15 K, m1 = 0.001224	0.004726
293.15 K, m1 = 0.001989	0.004637
293.15 K, m1 = 0.003077	0.0045457
293.15 K, m1 = 0.004001	0.004483
293.15 K, m1 = 0.005908	0.0043822
293.15 K, m1 = 0.007927	0.004295
293.15 K, m1 = 0.009859	0.004226
293.15 K, m1 = 0.0119	0.004162
298.15 K, m1 = 0.000116	0.005325
298.15 K, m1 = 0.0003157	0.005244
298.15 K, m1 = 0.0005504	0.0051809
298.15 K, m1 = 0.0007618	0.0051351
298.15 K, m1 = 0.001217	0.0050592
298.15 K, m1 = 0.002007	0.0049609
298.15 K, m1 = 0.002964	0.0048739
298.15 K, m1 = 0.003939	0.004802
298.15 K, m1 = 0.005917	0.0046899
298.15 K, m1 = 0.00789	0.004599
298.15 K, m1 = 0.009808	0.0045256
298.15 K, m1 = 0.01189	0.0044558
303.15 K, m1 = 0.0001023	0.005694
303.15 K, m1 = 0.0003262	0.005596
303.15 K, m1 = 0.0005565	0.00553
303.15 K, m1 = 0.0007645	0.0054821
303.15 K, m1 = 0.001229	0.0053997
303.15 K, m1 = 0.002017	0.0052952
303.15 K, m1 = 0.003018	0.0051984
303.15 K, m1 = 0.004001	0.0051217
303.15 K, m1 = 0.005892	0.0050075
303.15 K, m1 = 0.007841	0.0049118
303.15 K, m1 = 0.009874	0.0048292
303.15 K, m1 = 0.01188	0.0047579
308.15 K, m1 = 0.000135	0.006046
308.15 K, m1 = 0.0003264	0.005961
308.15 K, m1 = 0.0005229	0.0058999
308.15 K, m1 = 0.0007539	0.0058422
308.15 K, m1 = 0.00122	0.0057534
308.15 K, m1 = 0.002002	0.0056421
308.15 K, m1 = 0.002969	0.005541
308.15 K, m1 = 0.00395	0.0054581
308.15 K, m1 = 0.005926	0.00533
308.15 K, m1 = 0.007923	0.0052265
308.15 K, m1 = 0.009885	0.005143
308.15 K, m1 = 0.01187	0.0050687
313.15 K, m1 = 8.854e-05	0.00646
313.15 K, m1 = 0.0002531	0.006367
313.15 K, m1 = 0.0004344	0.006299
313.15 K, m1 = 0.00071	0.0062208
313.15 K, m1 = 0.001219	0.006116
313.15 K, m1 = 0.002012	0.0059959
313.15 K, m1 = 0.003006	0.0058852
313.15 K, m1 = 0.00399	0.0057965
313.15 K, m1 = 0.005907	0.0056636
313.15 K, m1 = 0.007913	0.0055535
313.15 K, m1 = 0.00989	0.0054653
313.15 K, m1 = 0.01185	0.0053887
318.15 K, m1 = 0.0001115	0.006838
318.15 K, m1 = 0.0002618	0.006751
318.15 K, m1 = 0.000487	0.006665
318.15 K, m1 = 0.0007457	0.0065904
318.15 K, m1 = 0.001234	0.0064856
318.15 K, m1 = 0.002038	0.0063572
318.15 K, m1 = 0.003	0.0062427
318.15 K, m1 = 0.003985	0.0061473
318.15 K, m1 = 0.005931	0.0060029
318.15 K, m1 = 0.007878	0.0058897
318.15 K, m1 = 0.009914	0.0057949
